Earlier results as cited in paper PMC11678311, “Log BB Prediction Models Using TLC and HPLC Retention Values as Protein Affinity Data” (Pharmaceutics, 2024).

Settings: drugs highly bound to plasma proteins whose log BB may be less than zero

Structure (SMILES)	penetration of the blood–brain barrier / central action
Cc1ncc2n1-c1ccc(Cl)cc1C(c1ccccc1F)=NC2 [midazolam]	cross the blood–brain barrier in an unbound state and act centrally
CC(C)Cc1ccc(C(C)C(=O)O)cc1 (centres unmarked) [ibuprofen]	cross the blood–brain barrier in an unbound state and act centrally
